Format in all cases: biochemical
For one test, the target named is human α-thrombin (Homo sapiens, UniProt P00734). Kind of test: Thrombin (fIIa) chromogenic assay, IC50.
The target of another test is T1, Factor Xa (Homo sapiens, UniProt P00742).
T1 construct: purchased Enzyme Research Laboratories, Inc. (South Bend, Ind.)
The test is described as follows: Factor Xa chromogenic assay, IC50. Conditions: 30 min incubation; read-out: fxa IC50 (30 min). How it is done: (§1) The ability of compounds of the present invention to act as a selective inhibitor of thrombin activity was assessed by determining the concentration of test-compound which inhibited the activity of this enzyme by 50%, (IC50), and comparing this value to that determined for all or some of the following related serine proteases: recombinant tissue plasminogen activator (rt-PA), plasmin, activated protein C, chymotrypsin, factor Xa and trypsin.
(§2) The buffer used for all assays was HBSA (10 mM HEPES, pH 7.5, 150 mM sodium chloride, 0.1% bovine serum albumin).
(§3) The assay for IC50 determinations was conducted by combining in appropriate wells of a Corning microtiter plate, 50 microliters of HBSA, 50 microliters of the test compound at a specified concentration (covering a broad concentration range) diluted in HBSA (or HBSA alone for V0 (uninhibited velocity) measurement), and 50 microliters of the enzyme diluted in HBSA. Following a 30 minute incubation at ambient temperature, 50 microliters of the substrate at the concentrations specified below were added to the wells, yielding a final total volume of 200 microliters. The initial velocity of chromogenic substrate hydrolysis was measured by the change in absorbance at 405 nm using a Thermo Max® Kinetic Microplate Reader over a 5 minute period in which less than 5% of the added substrate was utilized. The concentration of added inhibitor which caused a 50% decrease in the initial rate of hydrolysis was defined as the IC50 value.
Factor Xa catalytic activity was determined using the chromogenic substrate S-2765 (N-benzyloxycarbonyl-D-arginine-L-glycine-L-arginine-p-n itroaniline ), obtained from DiaPharma Group (Franklin, Ohio). All substrates were reconstituted in deionized water prior to use. […] Purified human Factor X was obtained from Enzyme Research Laboratories, Inc. (South Bend, Ind.) and Factor Xa (FXa) was activated and prepared from it as described [Bock, P. E., Craig, P. A., Olson, S. T., and Singh, P. Arch, Biochem. Biophys, 273:375-388 (1989)]. The enzyme was diluted into HBSA prior to assay in which the final concentration was 0.25 nM.

The target of another test is human plasmin (Homo sapiens, UniProt P00747). The test is described as follows: Plasmin chromogenic assay, IC50. Conditions: 30 min incubation. How it is done:
as §1, §2, §3
Plasmin catalytic activity was determined using the chromogenic substrate, S-2366 [L-pyroglutamyl-L-prolyl-L-arginine-p-nitroaniline hydrochloride], which was obtained from DiaPharma group. The substrate was made up in deionized water followed by dilution in HBSA prior to the assay in which the final concentration was 300 micromolar (about 2.5-times Km). Purified human plasmin was obtained from Enzyme Research Laboratories, Inc. The enzyme was diluted into HBSA prior to assay in which the final concentration was 1.0 nM.

The target of test [1] is T2, bovine pancreatic trypsin (Bos taurus, UniProt P00760).
T2 construct: bovine pancreatic trypsin was obtained from Worthington Biochemical Corp; purchased Worthington Biochemical Corp. TRL3; host or cells: bovine pancreas
T2 sequence (P00760 24-246): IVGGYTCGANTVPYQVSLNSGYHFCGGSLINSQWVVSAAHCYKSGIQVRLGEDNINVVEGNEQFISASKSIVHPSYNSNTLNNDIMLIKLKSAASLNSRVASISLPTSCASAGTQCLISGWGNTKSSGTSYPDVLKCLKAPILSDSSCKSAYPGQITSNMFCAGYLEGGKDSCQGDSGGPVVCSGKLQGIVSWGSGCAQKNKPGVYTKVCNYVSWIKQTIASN
Kind of test: Trypsin chromogenic assay, IC50. Conditions: 30 min incubation. Here is the method: as §1, §2, §3
Trypsin catalytic activity was determined using the chromogenic substrate, S-2222 (benzoyl-L-isoleucine-L-glutamic acid-[gamma-methyl ester]-L-arginine-p-nitroanilide), which was obtained from DiaPharma Group. […] Purified (3×-crystallized; TRL3) bovine pancreatic trypsin was obtained from Worthington Biochemical Corp. The enzyme was reconstituted in deionized water and diluted into HBSA prior to assay in which the final concentration was 0.5 nM.

Setting [2] is: 0 min incubation of enzyme with inhibitor, read-out: fIIa IC50 (0 min).
Setting [3] is: 30 min incubation of enzyme with inhibitor, read-out: fIIa IC50 (30 min).

Where two headings read alike, the source gives them in different places.

T1 sequence (P00742 235-488 limits assumed): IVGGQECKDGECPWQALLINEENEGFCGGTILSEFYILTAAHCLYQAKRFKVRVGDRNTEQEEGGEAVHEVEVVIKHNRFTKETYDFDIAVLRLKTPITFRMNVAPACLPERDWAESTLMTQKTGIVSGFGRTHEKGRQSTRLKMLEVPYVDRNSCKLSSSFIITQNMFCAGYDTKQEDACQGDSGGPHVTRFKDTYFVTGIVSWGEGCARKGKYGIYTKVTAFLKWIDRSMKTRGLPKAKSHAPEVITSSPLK
T1 sequence (P00742 41-179 partner limits assumed): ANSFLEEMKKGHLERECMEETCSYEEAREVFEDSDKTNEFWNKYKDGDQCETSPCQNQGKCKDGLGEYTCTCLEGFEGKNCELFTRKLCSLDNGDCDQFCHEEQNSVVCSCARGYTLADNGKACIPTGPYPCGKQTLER
human plasmin, sequence (P00747 581-810 limits assumed): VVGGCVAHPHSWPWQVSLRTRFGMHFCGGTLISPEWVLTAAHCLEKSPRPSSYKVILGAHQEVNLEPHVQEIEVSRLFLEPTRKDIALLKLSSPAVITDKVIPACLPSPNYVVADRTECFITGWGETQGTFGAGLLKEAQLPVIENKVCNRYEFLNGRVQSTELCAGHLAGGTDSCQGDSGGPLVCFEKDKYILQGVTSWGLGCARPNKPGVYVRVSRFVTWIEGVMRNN
human plasmin, sequence (P00747 97-580 partner limits assumed): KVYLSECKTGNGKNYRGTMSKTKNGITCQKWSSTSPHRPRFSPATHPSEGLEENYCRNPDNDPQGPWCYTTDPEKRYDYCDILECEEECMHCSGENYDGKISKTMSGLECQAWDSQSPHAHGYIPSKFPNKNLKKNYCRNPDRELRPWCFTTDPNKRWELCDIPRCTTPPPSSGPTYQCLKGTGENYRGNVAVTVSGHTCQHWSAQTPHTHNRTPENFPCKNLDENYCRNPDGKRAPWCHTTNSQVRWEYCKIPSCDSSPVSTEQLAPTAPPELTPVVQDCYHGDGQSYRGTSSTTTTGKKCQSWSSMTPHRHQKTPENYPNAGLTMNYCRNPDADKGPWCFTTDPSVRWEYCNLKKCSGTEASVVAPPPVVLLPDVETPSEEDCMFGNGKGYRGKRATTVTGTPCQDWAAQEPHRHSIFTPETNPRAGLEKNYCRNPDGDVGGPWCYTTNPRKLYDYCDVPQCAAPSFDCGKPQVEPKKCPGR

Regarding “1-[5-(2-Amino-6-methylpyridyl)methylcarboxamidomethyl]-3-[2-(2-chlorobenzenesulfonyl)hydrazino]-6-methylpyrazinone, Hydrotrifluoroacetate [Example 53]”, the IC50 (as a rule, the midpoint of a concentration-inhibition curve) was no more than 0.1 µM on human α-thrombin (setting [2]); no more than 0.1 µM on human α-thrombin (setting [3]); 2.5 to 100 µM at Factor Xa; no less than 100 µM against human plasmin; 2.5 to 100 µM in test [1].

“1-[5-(2-Amino-6-methylpyridyl)methylcarboxamidomethyl]-3-[2-(4-chlorobenzenesulfonyl)hydrazino]-6-methylpyrazinone, Hydrotrifluoroacetate [Example 55]”: the 50% inhibitory concentration (IC50) on human α-thrombin (setting [2]) was no more than 0.1 µM; at human α-thrombin (setting [3]) it was no more than 0.1 µM; on Factor Xa, no less than 100 µM; against human plasmin, no less than 100 µM; in test [1], no less than 100 µM.

For `Cc1nc(N)ccc1CNC(=O)Cn1c(C)cnc(NNC(=O)Cc2ccccc2)c1=O` [Example 12, 1-[5-(2-Amino-6-methylpyridyl)methylcarboxamidomeyhyl-]6-methyl-3-(2-phenylacetylhydrazino)pyrazinone, Hydrotrifluoroacetate], the 50% inhibitory concentration (IC50) at human α-thrombin (setting [2]) is no more than 0.1 µM; at human α-thrombin (setting [3]), no more than 0.1 µM; at Factor Xa, no less than 100 µM; at human plasmin, 2.5 to 100 µM; in test [1], no less than 100 µM.

In the case of `Cc1nc(N)ccc1CNC(=O)Cn1c(C)cnc(NNS(=O)(=O)c2ccccc2)c1=O` [Example 22, 1-[5-(2-Amino-6-methylpyridyl)methylcarboxamidomethyl]-6-methyl-3-(2-phenylsulfonylhydrazino)pyrazinone, Hydrotrifluoroacetate], the IC50 at human α-thrombin (setting [2]) was no more than 0.1 µM; on human α-thrombin (setting [3]), no more than 0.1 µM; on Factor Xa it was no less than 100 µM; against human plasmin it was no less than 100 µM; in test [1], 2.5 to 100 µM.

Regarding `Cc1nc(N)ccc1CNC(=O)Cn1c(C)cnc(NNC(=O)OCc2ccccc2Cl)c1=O` [Example 24, 1-[5-(2-Amino-6-methylpyridyl)methylcarboxamidomethyl]-3-[2-(2-chlorobenzyloxycarbonyl)hydrazino]-6-methylpyrazinone, Hydrotrifluoroacetate], the half-inhibitory concentration (IC50) at human α-thrombin (setting [2]) was no more than 0.1 µM; on human α-thrombin (setting [3]) it was no more than 0.1 µM; on Factor Xa, no less than 100 µM; on human plasmin it was no less than 100 µM; in test [1], 2.5 to 100 µM.

For `C=CCOC(=O)NNc1ncc(C)n(CC(=O)NCc2ccc(N)nc2C)c1=O` [Example 25, 3-(2-Allyloxycarbonylhydrazino)-1-[5-(2-amino-6-methylpyridyl)methylcarboxamidomethyl]-6-methylpyrazinone, Hydrotrifluoroacetate], the IC50 is no more than 0.1 µM at human α-thrombin (setting [2]); no more than 0.1 µM on human α-thrombin (setting [3]); no less than 100 µM at Factor Xa; no less than 100 µM against human plasmin; no less than 100 µM in test [1].

Regarding `C=CCCOC(=O)NNc1ncc(C)n(CC(=O)NCc2ccc(N)nc2C)c1=O` [Example 28, 1-[5-(2-Amino-6-methylpyridyl)methylcarboxamidomethyl]-3-[2-(3-butenyloxycarbonyl)hydrazino]-6-methylpyrazinone, Hydrotrifluoroacetate], the concentration for half-maximal inhibition (IC50) is no more than 0.1 µM at human α-thrombin (setting [2]); no more than 0.1 µM on human α-thrombin (setting [3]); 2.5 to 100 µM at Factor Xa; no less than 100 µM at human plasmin; no less than 100 µM in test [1].

As to `C#CCOC(=O)NNc1ncc(C)n(CC(=O)NCc2ccc(N)nc2C)c1=O` [Example 30, 1-[5-(2-Amino-6-methylpyridyl)methylcarboxamidomethyl]-6-methyl-3-(2-propargyloxycarbonylhydrazino)pyrazinone, Hydrotrifluoroacetate], the IC50 on human α-thrombin (setting [2]) was no more than 0.1 µM; at human α-thrombin (setting [3]), no more than 0.1 µM; on Factor Xa, no less than 100 µM; at human plasmin, no less than 100 µM; in test [1], no less than 100 µM.

In the case of `Cc1nc(N)ccc1CNC(=O)Cn1c(C)cnc(NNC(=O)OCC(C)(C)C)c1=O` [Example 31, 1-[5-(2-Amino-6-methylpyridyl)methylcarboxamidomeyhyl-]6-methyl-3-(2-neopentyloxycarbonylhydrazino)pyrazinone, Hydrotrifluoroacetate], the half-maximal inhibitory concentration (IC50) was no more than 0.1 µM at human α-thrombin (setting [2]); no more than 0.1 µM on human α-thrombin (setting [3]); no less than 100 µM on Factor Xa; no less than 100 µM on human plasmin; 2.5 to 100 µM in test [1].

Regarding `Cc1nc(N)ccc1CNC(=O)Cn1c(C)cnc(NNC(=O)OCc2ccccc2Cl)c1=O` [Example 32, 1-[5-(2-Amino-6-methylpyridyl)methylcarboxamidomethyl]-3-[2-(2-chlorobenzyloxycarbonyl)hydrazino]-6-methylpyrazinone, Hydrotrifluoroacetate], the IC50 at human α-thrombin (setting [2]) was no more than 0.1 µM; at human α-thrombin (setting [3]), no more than 0.1 µM; at Factor Xa, no less than 100 µM; on human plasmin, 2.5 to 100 µM; in test [1], no less than 100 µM.

`Cc1nc(N)ccc1CNC(=O)Cn1c(C)cnc(NNC(=O)NCc2ccc(Cl)cc2)c1=O` [Example 37, 1-[5-(2-Amino-6-methylpyridyl)methylcarboxamidomethyl]-3-[2-(4-chlorobenzylcarbamyl)hydrazino]-6-methylpyrazinone, Hydrotrifluoroacetate]: the IC50 at human α-thrombin (setting [2]) is no more than 0.1 µM; on human α-thrombin (setting [3]), no more than 0.1 µM; on Factor Xa it was no less than 100 µM; against human plasmin, no less than 100 µM; in test [1], no less than 100 µM.

On to `Cc1nc(N)ccc1CNC(=O)Cn1c(C)cnc(NNS(=O)(=O)c2ccccc2C(F)(F)F)c1=O` [Example 45, 1-[5-(2-Amino-6-methylpyridyl)methylcarboxamidomethyl]-6-methyl-3-[2-(2-trifluoromethylbenzenesulfonyl)hydrazino]pyrazinone, Hydrotrifluoroacetate], for which the half-inhibitory concentration (IC50) was no more than 0.1 µM on human α-thrombin (setting [2]); no more than 0.1 µM on human α-thrombin (setting [3]); 2.5 to 100 µM on Factor Xa; no less than 100 µM on human plasmin; no less than 100 µM in test [1].

For the compound `COc1ccccc1CNC(=O)NNc1ncc(C)n(CC(=O)NCc2ccc(N)nc2C)c1=O` [Example 48, 1-[5-(2-Amino-6-methylpyridyl)methylcarboxamidomethyl]-3-[2-(2-methoxybenzylcarbamyl)hydrazino]-6-methylpyrazinone, Hydrotrifluoroacetate], the IC50 on human α-thrombin (setting [2]) is no more than 0.1 µM; on human α-thrombin (setting [3]), no more than 0.1 µM; on Factor Xa it was no less than 100 µM; at human plasmin it was no less than 100 µM; in test [1], no less than 100 µM.

On to `Cc1nc(N)ccc1CNC(=O)Cn1c(C)cnc(NNC(=O)NCc2ccc3c(c2)OCO3)c1=O` [Example 49, 1-[5-(2-Amino-6-methylpyridyl)methylcarboxamidomethyl]-6-methyl-3-(2-piperonylcarbamylhydrazino)pyrazinone, Hydrotrifluoroacetate], for which the IC50 on human α-thrombin (setting [2]) was no more than 0.1 µM; on human α-thrombin (setting [3]) it was no more than 0.1 µM; on Factor Xa, no less than 100 µM; at human plasmin, no less than 100 µM; in test [1] it was no less than 100 µM.

For `Cc1nc(N)ccc1CNC(=O)Cn1c(C)cnc(NNC(=O)NCCC(C)(C)C)c1=O` [Example 50, 1-[5-(2-Amino-6-methylpyridyl)methylcarboxamidomethyl]-6-methyl-3-[2-(3,3-dimethylbutylcarbamyl)hydrazino]pyrazinone, Hydrotrifluoroacetate], the IC50 is no more than 0.1 µM on human α-thrombin (setting [2]); no more than 0.1 µM on human α-thrombin (setting [3]); 2.5 to 100 µM on Factor Xa; no less than 100 µM at human plasmin; 2.5 to 100 µM in test [1].

The record behind these values is US6506760B1, “Substituted hydrazinyl heteroaromatic inhibitors of thrombin” (Corvas International, Inc., priority 2000, dated 2003).
